Reference: ChEMBL document CHEMBL4184335, “Synthesis, Structure-Activity Relationships, and Preclinical Evaluation of Heteroaromatic Amides and 1,3,4-Oxadiazole Derivatives as 5-HT4 Receptor Partial Agonists” (J Med Chem, 2018)

How the values were obtained:
in vitro [1] = conditions: rat, liver microsomes
in vitro [2] = conditions: human, liver microsomes
in vivo [3] = conditions: Wistar, rat, po, 3 mg/kg
in vivo [4] = conditions: Wistar, rat, po, 3 mg/kg; remark: listed apart in the source
in vivo [5] = conditions: Wistar, rat
in vivo [6] = conditions: Wistar, rat, iv, 1 mg/kg
in vivo [7] = conditions: Wistar, rat, po, 10 mg/kg

SMILES	metabolised at 0.5 h (in vitro [1])	metabolised at 0.5 h (in vitro [2])	bioavailability (in vivo [3])	Cmax (in vivo [4])	AUC (in vivo [5])	clearance (in vivo [6])	Kp at 1 h (in vivo [7]; brain)	Kp at 1 h (in vivo [7]; brain and plasma)
COCCCN1CCC(CNC(=O)c2cccn3nc(C(C)C)nc23)CC1	23.4%	2.7%	–	–	–	–	–	–
CC(C)c1nc(C(=O)NCC2C3CN(C4CCOCC4)CC23)n2ccccc12 (stereo unspecified)	0%	24.4%	15%	60 ng/mL	121 ng·h/mL	62 mL/min/kg	4	–
OC1(CN2CCC(COc3noc4cccc(O[C@@H]5CCOC5)c34)CC2)CCOCC1 [PF-04995274]	87.3%	71.9%	5.4%	85 ng/mL	94 ng·h/mL	29 mL/min/kg	–	0.7
COCCCN1CCC(NC(=O)c2cc(Cl)c(N)c3c2OCC3)CC1 [PRUCALOPRIDE]	36.9%	22.1%	84%	285 ng/mL	828 ng·h/mL	113 mL/min/kg	–	–
CC(C)n1c(=O)c(C(=O)NCCCN2CCCCC2)c(O)c2ccsc21 [PRX-03140]	36.9%	22.1%	2%	–	–	–	–	1.5
